Earlier results in patent publication US20050032782A1, “Treatment of chronic pain associated with drug or radiation therapy” (Cypress Bioscience, Inc., priority 2003, published 2005).

Biological target: NMDA receptor
Details: reported by Shuto et al.; read-out: IC50 value, NMDA receptor antagonistic properties

## CCN(CC)C(=O)C1(c2ccccc2)CC1CN (stereo not shown) [milnacipran]
  IC50: ~6.3 µM
